The target of experiment [1] is T1, human MetAP2 enzyme (Homo sapiens, UniProt P50579). As to the kind of experiment: MetAP2 enzyme assay, enzyme complexed with cobalt ions. The conditions noted are these: MetAP2 Co pIC50, MetAP2 enzyme complexed with cobalt ions; Met-AMC substrate at Km.
Method: (§1) DNA encoding the full-length sequence of human MetAP2 enzyme is amplified by PCR and cloned into a pFastBac expression vector (Invitrogen). Recombinant baculovirus incorporating the MetAP2 construct is generated by transposition using the Bac-to-Bac system (Invitrogen). The expression of recombinant protein is carried out by infection of Spodoptera frugiperda Sf9 cells (Invitrogen) in 5 L Wave Bioreactors (Wave Biotech). Recombinant protein is isolated from cellular extracts by binding to an SP Hitrap Fast Flow or SP Sepharose (Sigma) column, and the protein is eluted using a NaCl gradient. Partially purified extracts of MetAP2 are further purified by an AKTA FPLC over a Superdex-200 column (GE). The purity of MetAP2 protein is determined on denaturing SDS-PAGE gel.
(§2) The results for each well are expressed as percent inhibition and calculated using the equation:
Experiment [2] has as its target T1, human MetAP2 enzyme. The experiment is described as follows: MetAP2 enzyme assay, enzyme complexed with manganese ions. The conditions noted are these: MetAP2 Mn pIC50, MetAP2 enzyme complexed with manganese ions; Met-AMC substrate at Km.
Method: as §1, §2

Broadly, the IC50 is the concentration at which inhibition is half-maximal. High values mean lower potency, low ones higher potency.

T1 sequence (P50579 whole entry): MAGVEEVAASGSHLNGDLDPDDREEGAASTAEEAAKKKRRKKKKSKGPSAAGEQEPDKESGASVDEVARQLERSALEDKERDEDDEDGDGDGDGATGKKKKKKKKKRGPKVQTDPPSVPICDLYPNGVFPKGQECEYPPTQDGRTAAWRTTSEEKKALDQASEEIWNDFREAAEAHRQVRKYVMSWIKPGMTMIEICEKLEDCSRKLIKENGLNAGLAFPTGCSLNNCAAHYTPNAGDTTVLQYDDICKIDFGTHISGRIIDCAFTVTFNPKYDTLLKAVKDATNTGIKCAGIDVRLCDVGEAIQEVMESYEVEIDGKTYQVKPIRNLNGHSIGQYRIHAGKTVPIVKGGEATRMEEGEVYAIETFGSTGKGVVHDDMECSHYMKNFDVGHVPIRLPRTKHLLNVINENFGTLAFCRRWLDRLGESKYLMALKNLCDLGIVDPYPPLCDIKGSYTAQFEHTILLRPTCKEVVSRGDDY

`Cc1nn(CCN(C)C)c(C)c1-c1cc(C(F)(F)F)cc2[nH]ncc12` [Example 219, 2-(3,5-dimethyl-4-(6-(trifluoromethyl)-1H-indazol-4-yl)-1H-pyrazol-1-yl)-N,N-dimethylethanamine]: the IC50 is 50.1 nM against human MetAP2 enzyme [1] and 12.6 nM at human MetAP2 enzyme [2].

Take `Cn1cc(-c2cc(C(F)(F)F)cc3[nH]ncc23)c(CO)n1` [Example 220, (1-methyl-4-(6-(trifluoromethyl)-1H-indazol-4-yl)-1H-pyrazol-3-yl)methanol]: the figures for the IC50 on human MetAP2 enzyme [1] and against human MetAP2 enzyme [2] were 79.4 nM and 6.31 nM, respectively.

As for `CN1CCN(C(=O)c2cnc(N)c(-c3cc(C(F)(F)F)cc4[nH]ncc34)c2)CC1` [Example 221, (6-amino-5-(6-(trifluoromethyl)-1H-indazol-4-yl)pyridin-3-yl)(4-methylpiperazin-1-yl)methanone], the figures for the IC50 against human MetAP2 enzyme [1] and against human MetAP2 enzyme [2] were 63.1 nM and 10 nM, respectively.

For `Cc1nn2c(=O)[nH]ncc2c1-c1cc(C(F)(F)F)cc2[nH]ncc12` [Example 222, 2-methyl-3-(6-(trifluoromethyl)-1H-indazol-4-yl)pyrazolo[1,5-d][1,2,4]triazin-7(6H)-one], the IC50 at human MetAP2 enzyme [1] is 251 nM; against human MetAP2 enzyme [2], 15.8 nM.

Take `O=S(=O)(c1ccc(-c2cc(C(F)(F)F)cc3[nH]ncc23)cc1)n1cccn1` [Example 223, 4-(4-(1H-pyrazol-1-ylsulfonyl)phenyl)-6-(trifluoromethyl)-1H-indazole]: the IC50 on human MetAP2 enzyme [1] is 126 nM; against human MetAP2 enzyme [2], 7.94 nM.

Turning to `O=S(=O)(NCCO)c1ccc(-c2cc(C(F)(F)F)cc3[nH]ncc23)cc1` [Example 224, N-(2-hydroxyethyl)-4-(6-(trifluoromethyl)-1H-indazol-4-yl)benzenesulfonamide], the results for the IC50 on human MetAP2 enzyme [1] and on human MetAP2 enzyme [2] were 39.8 nM and 2.51 nM, respectively.

In the case of `O=S(=O)(c1ccc(-c2cc(C(F)(F)F)cc3[nH]ncc23)cc1)N1CCOCC1` [Example 225, 4-(4-(6-(trifluoromethyl)-1H-indazol-4-yl)phenylsulfonyl)morpholine], the values for the IC50 at human MetAP2 enzyme [1] and at human MetAP2 enzyme [2] were 100 nM and 7.94 nM, respectively.

On to `CN1CCN(C(=O)c2cc(-c3cc(C(F)(F)F)cc4[nH]ncc34)c[nH]c2=O)CC1` [Example 227, 3-(4-methylpiperazine-1-carbonyl)-5-(6-(trifluoromethyl)-1H-indazol-4-yl)pyridin-2(1H)-one], for which the IC50 against human MetAP2 enzyme [1] is 126 nM; on human MetAP2 enzyme [2], 7.94 nM.

In the case of `O=C(NCCO)c1cc(-c2cc(C(F)(F)F)cc3[nH]ncc23)c[nH]c1=O` [Example 228, N-(2-hydroxyethyl)-2-oxo-5-(6-(trifluoromethyl)-1H-indazol-4-yl)-1,2-dihydropyridine-3-carboxamide], the IC50 was 158 nM against human MetAP2 enzyme [1] and 5.01 nM at human MetAP2 enzyme [2].

As for `COc1ncc(-c2cc(C(F)(F)F)cc3[nH]ncc23)cc1C(=O)NCCO` [Example 229, N-(2-hydroxyethyl)-2-methoxy-5-(6-(trifluoromethyl)-1H-indazol-4-yl)nicotinamide], the IC50 against human MetAP2 enzyme [1] was 63.1 nM; on human MetAP2 enzyme [2], 6.31 nM.

As to `Nc1ncc(-c2cc(C(F)(F)F)cc3[nH]ncc23)cc1C(=O)NCCO` [Example 230, 2-amino-N-(2-hydroxyethyl)-5-(6-(trifluoromethyl)-1H-indazol-4-yl)nicotinamide], the results for the IC50 against human MetAP2 enzyme [1] and against human MetAP2 enzyme [2] were 158 nM and 7.94 nM, respectively.

Regarding `NC(=O)c1cc(-c2cc(C(F)(F)F)cc3[nH]ncc23)c[nH]c1=O` [Example 231, 2-oxo-5-(6-(trifluoromethyl)-1H-indazol-4-yl)-1,2-dihydropyridine-3-carboxamide], the results for the IC50 against human MetAP2 enzyme [1] and on human MetAP2 enzyme [2] were 158 nM and 6.31 nM, respectively.

On to `COc1ncc(-c2cc(C(F)(F)F)cc3[nH]ncc23)cc1C(N)=O` [Example 232, 2-methoxy-5-(6-(trifluoromethyl)-1H-indazol-4-yl)nicotinamide], for which the IC50 against human MetAP2 enzyme [1] was 63.1 nM; on human MetAP2 enzyme [2], 6.31 nM.

As for `NC(=O)c1cc(-c2cc(C(F)(F)F)cc3[nH]ncc23)cnc1N` [Example 233, 2-amino-5-(6-(trifluoromethyl)-1H-indazol-4-yl)nicotinamide], the IC50 is 100 nM at human MetAP2 enzyme [1] and 7.94 nM at human MetAP2 enzyme [2].

As to `CN1C(=O)Cc2cc(-c3cc(C(F)(F)F)cc4[nH]ncc34)ccc21` [Example 234, 1-methyl-5-(6-(trifluoromethyl)-1H-indazol-4-yl)indolin-2-one], the IC50 is 20 nM at human MetAP2 enzyme [1] and 3.98 nM against human MetAP2 enzyme [2].

On to `O=C1Cc2cc(-c3cc(C(F)(F)F)cc4[nH]ncc34)ccc2N1` [Example 235, 5-(6-(trifluoromethyl)-1H-indazol-4-yl)indolin-2-one], for which the IC50 is 12.6 nM against human MetAP2 enzyme [1] and 3.98 nM on human MetAP2 enzyme [2].

Regarding `FC(F)(F)c1cc(-c2ccc3[nH]ncc3c2)c2cn[nH]c2c1` [Example 236, 6-(trifluoromethyl)-1H,1′H-4,5′-biindazole], the half-maximal inhibitory concentration (IC50) against human MetAP2 enzyme [1] was 63.1 nM; on human MetAP2 enzyme [2], 6.31 nM.

In the case of `O=c1[nH]c2ccc(-c3cc(C(F)(F)F)cc4[nH]ncc34)cc2[nH]1` [Example 237, 5-(6-(trifluoromethyl)-1H-indazol-4-yl)-1H-benzo[d]imidazol-2(3H)-one], the values for the IC50 against human MetAP2 enzyme [1] and against human MetAP2 enzyme [2] were 12.6 nM and 2.51 nM, respectively.

Regarding `O=C1Cc2cc(-c3cc(C(F)(F)F)cc4[nH]ncc34)cnc2N1` [Example 238, 5-(6-(trifluoromethyl)-1H-indazol-4-yl)-1H-pyrrolo[2,3-b]pyridin-2(3H)-one], the concentration for half-maximal inhibition (IC50) at human MetAP2 enzyme [1] is 39.8 nM; against human MetAP2 enzyme [2], 6.31 nM.

On to `O=C1Cc2ccc(-c3cc(C(F)(F)F)cc4[nH]ncc34)cc2N1` [Example 239, 6-(6-(trifluoromethyl)-1H-indazol-4-yl)indolin-2-one], for which the results for the IC50 against human MetAP2 enzyme [1] and on human MetAP2 enzyme [2] were 15.8 nM and 5.01 nM, respectively.

In the case of `FC(F)(F)c1cc(-c2cnc3[nH]ccc3n2)c2cn[nH]c2c1` [Example 240, 2-(6-(trifluoromethyl)-1H-indazol-4-yl)-5H-pyrrolo[2,3-b]pyrazine], the IC50 against human MetAP2 enzyme [1] is 158 nM; against human MetAP2 enzyme [2] it was 5.01 nM.

Turning to `O=c1[nH]c2cc(-c3cc(C(F)(F)F)cc4[nH]ncc34)cnc2[nH]1` [Example 241, 6-(6-(trifluoromethyl)-1H-indazol-4-yl)-1H-imidazo[4,5-b]pyridin-2(3H)-one], the IC50 against human MetAP2 enzyme [1] was 15.8 nM; on human MetAP2 enzyme [2], 2 nM.

As for `FC(F)(F)c1cc(-c2cnc3[nH]c(C(F)(F)F)nc3c2)c2cn[nH]c2c1` [Example 242, 2-(trifluoromethyl)-6-(6-(trifluoromethyl)-1H-indazol-4-yl)-3H-imidazo[4,5-b]pyridine], the IC50 is 50.1 nM at human MetAP2 enzyme [1] and 6.31 nM against human MetAP2 enzyme [2].

As to `FC(F)(F)c1cc(-c2cnc3[nH]ncc3c2)c2cn[nH]c2c1` [Example 243, 5-(6-(trifluoromethyl)-1H-indazol-4-yl)-1H-pyrazolo[3,4-b]pyridine], the IC50 against human MetAP2 enzyme [1] is 39.8 nM; on human MetAP2 enzyme [2] it was 5.01 nM.

For `O=C1CNc2ncc(-c3cc(C(F)(F)F)cc4[nH]ncc34)cc2N1` [Example 244, 7-(6-(trifluoromethyl)-1H-indazol-4-yl)-3,4-dihydropyrido[2,3-b]pyrazin-2(1H)-one], the IC50 is 31.6 nM against human MetAP2 enzyme [1] and 5.01 nM against human MetAP2 enzyme [2].

For the compound `Cn1cnc(N)c(-c2cc(C(F)(F)F)cc3[nH]ncc23)c1=O` [Example 245, 6-amino-3-methyl-5-(6-(trifluoromethyl)-1H-indazol-4-yl)pyrimidin-4(3H)-one], the half-maximal inhibitory concentration (IC50) is 1580 nM against human MetAP2 enzyme [1] and 31.6 nM against human MetAP2 enzyme [2].

As to `COc1ncc(-c2cc(C(F)(F)F)cc3[nH]ncc23)cn1` [Example 246, 4-(2-methoxypyrimidin-5-yl)-6-(trifluoromethyl)-1H-indazole], the figures for the IC50 against human MetAP2 enzyme [1] and against human MetAP2 enzyme [2] were 100 nM and 3.16 nM, respectively.

On to `CN(C)c1ncc(-c2cc(C(F)(F)F)cc3[nH]ncc23)cn1` [Example 247, N,N-dimethyl-5-(6-(trifluoromethyl)-1H-indazol-4-yl)pyrimidin-2-amine], for which the results for the IC50 against human MetAP2 enzyme [1] and against human MetAP2 enzyme [2] were 50.1 nM and 3.98 nM, respectively.

As to `COc1cc(-c2cc(C(F)(F)F)cc3[nH]ncc23)c(OC)nn1` [Example 248, 4-(3,6-dimethoxypyridazin-4-yl)-6-(trifluoromethyl)-1H-indazole], the IC50 against human MetAP2 enzyme [1] is 63.1 nM; on human MetAP2 enzyme [2] it was 5.01 nM.

For the compound `COc1ccc(-c2cc(C(F)(F)F)cc3[nH]ncc23)c(C)n1` [Example 249, 4-(6-methoxy-2-methylpyridin-3-yl)-6-(trifluoromethyl)-1H-indazole], the IC50 against human MetAP2 enzyme [1] was 79.4 nM; against human MetAP2 enzyme [2], 12.6 nM.

For the compound `Cn1ncc(-c2cc(C(F)(F)F)cc3[nH]ncc23)c1CO` [Example 250, (1-methyl-4-(6-(trifluoromethyl)-1H-indazol-4-yl)-1H-pyrazol-5-yl)methanol], the IC50 against human MetAP2 enzyme [1] is 79.4 nM; at human MetAP2 enzyme [2], 6.31 nM.

`NC(=O)c1ccc(-c2cc(C(F)(F)F)cc3[nH]ncc23)cn1` [Example 251, 5-(6-(trifluoromethyl)-1H-indazol-4-yl)picolinamide]: the IC50 at human MetAP2 enzyme [1] was 63.1 nM; against human MetAP2 enzyme [2], 5.01 nM.

Turning to `Cc1nccc(N)c1-c1cc(C(F)(F)F)cc2[nH]ncc12` [Example 252, 2-methyl-3-(6-(trifluoromethyl)-1H-indazol-4-yl)pyridin-4-amine], the IC50 was 1580 nM against human MetAP2 enzyme [1] and 100 nM against human MetAP2 enzyme [2].

As for `COc1cc(C)c(-c2cc(C(F)(F)F)cc3[nH]ncc23)cn1` [Example 253, 4-(6-methoxy-4-methylpyridin-3-yl)-6-(trifluoromethyl)-1H-indazole], the figures for the IC50 at human MetAP2 enzyme [1] and against human MetAP2 enzyme [2] were 63.1 nM and 10 nM, respectively.

For `CNC(=O)c1ncncc1-c1cc(C(F)(F)F)cc2[nH]ncc12` [Example 254, N-methyl-5-(6-(trifluoromethyl)-1H-indazol-4-yl)pyrimidine-4-carboxamide], the values for the IC50 on human MetAP2 enzyme [1] and against human MetAP2 enzyme [2] were 794 nM and 31.6 nM, respectively.

`Cc1nc(N)ccc1-c1cc(C(F)(F)F)cc2[nH]ncc12` [Example 255, 6-methyl-5-(6-(trifluoromethyl)-1H-indazol-4-yl)pyridin-2-amine]: the IC50 against human MetAP2 enzyme [1] was 25.1 nM; at human MetAP2 enzyme [2], 7.94 nM.

The values are drawn from patent US9434743B2, “Indazole derivatives” (TAKEDA PHARMACEUTICAL COMPANY LIMITED, priority 2012, dated 2016).
